Results from patent US20080227710A1, “Use of Conjugates of Doxorubicin with Lactosaminated Albumin” (priority 2005, published 2008).

Assay: DOXO concentrations in HCCs, heart and intestine of rats with DENA-induced HCCs
Format: in vivo, rat
Details: 4 h after i.v. injection, DOXO measured as free drug, mean ± standard error
Procedure: HCCs were induced by diethyInitrosamine (DENA) given in the drinking water (100 mg/l) for 8 weeks. […] Compounds were injected in the dorsal vein of penis, in a volume of 10 μl/10 g body weight, under isoflurane anaesthesia. For each compound four rats were used. Four hours after the injection the animals were killed under isoflurane anaesthesia. Organs were rapidly removed and frozen and neoplastic nodules were accurately dissected from the surrounding liver. A part of each tumor nodule was frozen; the other part was fixed in 10% formalin and processed for histology. Samples of frozen organs and nodules were used for radioactivity count and determination of DOXO levels. DOXO was measured according to Bots A M, et al. (Analysis of adriamycin . . . J Chromatogr 1983; 272: 421-427), with modifications (Di Stefano G, et al. Doxorubicin coupled to lactosaminated . . . Dig Liver Dis 2003; 35: 428-433).

COc1cccc2c1C(=O)c1c(O)c3c(c(O)c1C2=O)C[C@@](O)(C(=O)CO)C[C@@H]3O[C@H]1C[C@H](N)[C@H](O)[C@H](C)O1 [DOXO, doxorubicin]
DOXO concentration, nmoles DOXO/g, Heart (heart): 4.7 ± 0.3 nmoles DOXO/g | DOXO concentration, nmoles DOXO/g, Intestine (intestine): 4.2 ± 0.6 nmoles DOXO/g | DOXO concentration, nmoles DOXO/g, MD HCCs (moderately differentiated HCCs): 3.1 ± 0.4 nmoles DOXO/g | DOXO concentration, nmoles DOXO/g, PD HCCs (poorly differentiated HCCs): 3.6 ± 0.4 nmoles DOXO/g | DOXO concentration, nmoles DOXO/g, WD HCCs (well differentiated HCCs): 3.4 ± 0.6 nmoles DOXO/g
